Test results from PMC6284401 (Journal of peptide science : an official publication of the …, 2018).

How the values were obtained:
[1] = tested on: p-HER2; assay: Western blot of total and phosphorylated HER2, BT-474; format: cell-based; details: BT-474 cells, 1.5 μM, 36 h
[2] = human serum, HPLC AUC vs time
[3] = mouse, in vivo
[4] = tested on: MCF-7 cells; assay: Confocal microscopy binding, MCF-7 cells; format: cell-based; details: 0.5 μM, 30 min
[5] = cited from earlier work

N=C(N)NCCC[C@H]1NC(=O)C[C@H](c2cccc3ccccc23)NC(=O)[C@@H](Cc2ccccc2)NC(=O)[C@@H](CC(=O)O)NC(=O)[C@H]2CCCN2C(=O)[C@@H]2CCCN2C(=O)[C@@H](CCCNC(=N)N)NC(=O)C[C@H](c2cccc3ccccc23)NC(=O)[C@@H](Cc2ccccc2)NC(=O)[C@@H](CC(=O)O)NC1=O [compound 32, Cyclo(Ppdf-(R)Anapa-rdf-(R)Anapa-r]
Level of p-HER2 (Western blot) [1]: decreased the level of p-HER2 | Total-HER2 protein levels (Western blot) [1]: did not show any significant effect | Time stable in serum [2]: 48 h | Compound detected after 12 h compared to the 15 min [3]: ~70%

N=C(N)NCCC[C@@H]1NC(=O)[C@H]2CCCN2C(=O)[C@@H]2CCCN2C(=O)[C@H](CCCCNC(=O)c2ccc3c(c2)C2(OC3=O)c3ccc(O)cc3Oc3cc(O)ccc32)NC(=O)C[C@H](c2cccc3ccccc23)NC(=O)[C@H](Cc2ccccc2)NC(=O)[C@H](CC(=O)O)NC(=O)[C@H](CC(=O)O)NC(=O)[C@H](Cc2ccccc2)NC(=O)C[C@H](c2cccc3ccccc23)NC1=O [compound 44, Cyclo(PpR-(R)Anapa-FDDF-(R)Anapa-K-(6-FAM)]
Binding to cells by confocal microscopy (green fluorescence) [4]: does not bind significantly

Cyclo(PpR-((R) Anapa)FDDF-((R) Anapa)R [compound 18]
Stability in serum in vitro [5]: more than 48 h
